Assay results: ChEMBL document CHEMBL1201862, “PubChem BioAssay data set” (2004)
Each block holds one compound with its values, some of them ahead of it. Activity calls are given as the source filed them.

How the values were obtained:
[1] = molecular target: Transitional endoplasmic reticulum ATPase (Homo sapiens, UniProt P55072, C522A); test: Luminescence counterscreen assay for p97 inhibitors: dose response biochemical high throughput screening assay to identify inhibitors of the C522A mutant p97 ATPase: synthesized compounds. [Related pubchem assays: 1481, 1517, 1551 ]
[2] = molecular target: Transitional endoplasmic reticulum ATPase (Homo sapiens, UniProt P55072); test: Luminescence dose response biochemical high throughput screening assay for inhibitors of the p97 ATPase: synthesized compounds. [Related pubchem assays: 1481, 1517 ]
[3] = molecular target: ADP-ribosylation factor GTPase-activating protein 1 (Rattus norvegicus, UniProt Q62848); test: Fluorescence polarization-based biochemical high throughput dose response screening assay to identify inhibitors of ADP-ribosylation factor GTPase activating protein 1 (ARFGAP1).; format: functional
[4] = molecular target: Peroxisome proliferator-activated receptor gamma/Nuclear receptor corepressor 2 (Homo sapiens, UniProt P37231+Q9Y618); test: Counterscreen for NR2E3 inverse agonists: TR-FRET-based biochemical high throughput dose response assay to identify inverse agonists of the interaction between peroxisome proliferator-activated receptor gamma (PPARg) and nuclear receptor co-repressor 2 (NCOR2).; format: functional
[5] = molecular target: Photoreceptor-specific nuclear receptor (Homo sapiens, UniProt Q9Y5X4); test: ligands suppressing NR2E3 nuclear receptor activity – biochemical, TR-FRET, dose response (AID 463256); format: functional
[6] = molecular target: T1, Cytochrome P450 2C19 (Homo sapiens, UniProt P33261); test: Cytochrome panel assay with activity outcomes. Panel member name: p450-cyp2c19 Compounds with AC50 equal or less than 10 uM are considered active; format: functional
[7] = molecular target: Cytochrome P450 2C9 (Homo sapiens, UniProt P11712)
[8] = molecular target: T1, Cytochrome P450 2C19; test: qHTS Assay for Inhibitors and Substrates of Cytochrome P450 2C19. [Related pubchem assays: 410 ]; format: ADME; conditions: read-out: Potency
[9] = molecular target: T2, Rac GTPase-activating protein 1 (Homo sapiens, UniProt Q9H0H5); test: blockers of MgcRacGAP-driven Rac1 GTP hydrolysis – biochemical, ADP Hunter fluorescence, primary and confirmatory, confirmation (AID 624330); format: functional
T2 sequence (Q9H0H5 whole entry): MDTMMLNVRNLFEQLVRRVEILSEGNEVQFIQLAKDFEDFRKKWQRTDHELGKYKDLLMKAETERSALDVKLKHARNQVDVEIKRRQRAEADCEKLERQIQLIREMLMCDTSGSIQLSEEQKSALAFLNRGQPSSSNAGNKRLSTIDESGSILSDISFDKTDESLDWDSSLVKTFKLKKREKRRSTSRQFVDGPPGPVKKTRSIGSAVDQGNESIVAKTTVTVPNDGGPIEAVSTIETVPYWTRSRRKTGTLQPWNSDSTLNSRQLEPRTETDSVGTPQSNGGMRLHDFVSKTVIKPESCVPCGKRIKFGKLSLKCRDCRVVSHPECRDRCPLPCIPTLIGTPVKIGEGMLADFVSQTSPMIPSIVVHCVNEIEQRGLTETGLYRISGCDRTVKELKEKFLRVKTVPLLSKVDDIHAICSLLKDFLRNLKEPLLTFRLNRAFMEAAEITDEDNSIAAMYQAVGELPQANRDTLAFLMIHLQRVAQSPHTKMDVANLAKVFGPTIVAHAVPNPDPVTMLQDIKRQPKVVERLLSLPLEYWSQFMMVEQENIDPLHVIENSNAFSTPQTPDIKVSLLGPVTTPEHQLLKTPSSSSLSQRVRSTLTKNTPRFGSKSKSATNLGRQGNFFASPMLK

[10] = molecular target: T3, Alkaline phosphatase, tissue-nonspecific isozyme (Homo sapiens, UniProt P05186); test: potency against alkaline phosphatase TNAP – biochemical, luminescent, dose response, SAR follow-up (AID 1056)
T3 sequence (P05186 whole entry): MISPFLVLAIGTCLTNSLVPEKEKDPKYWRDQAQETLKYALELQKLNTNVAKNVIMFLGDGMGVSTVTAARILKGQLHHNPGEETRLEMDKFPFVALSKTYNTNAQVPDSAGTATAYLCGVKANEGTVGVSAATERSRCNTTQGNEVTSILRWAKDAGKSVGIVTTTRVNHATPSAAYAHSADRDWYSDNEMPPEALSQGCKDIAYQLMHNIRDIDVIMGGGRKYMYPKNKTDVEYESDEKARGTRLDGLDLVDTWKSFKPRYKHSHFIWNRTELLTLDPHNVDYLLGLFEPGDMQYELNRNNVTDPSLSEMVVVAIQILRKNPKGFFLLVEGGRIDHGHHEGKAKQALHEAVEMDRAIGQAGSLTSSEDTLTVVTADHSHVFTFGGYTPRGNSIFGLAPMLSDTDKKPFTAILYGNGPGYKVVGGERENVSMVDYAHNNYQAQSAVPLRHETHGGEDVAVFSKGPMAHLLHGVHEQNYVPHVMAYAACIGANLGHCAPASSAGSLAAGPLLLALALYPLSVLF

[11] = molecular target: Alkaline phosphatase, placental type (Homo sapiens, UniProt P05187); test: human placental alkaline phosphatase inhibition – biochemical, luminescence, confirmation (AID 1512); format: functional
[12] = Luminescent dose response cell-based high throughput screening assay for inhibitors of the Janus kinase 2 mutant JAK2V617F. [Related pubchem assays: 1446 (Primary screen.), 1521 (Confirmation assay.), 1486 (Counter screen.)]; format: functional
[13] = Trypanosoma cruzi growth suppression in host cells – NIH3T3 host cells, beta-gal luminescence, confirmation (AID 2044); format: functional, cell-based;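 also: intracellular parasites grown in NIH/3T3 mouse fibroblasts as host cells; luminescent beta-galactosidase reporter signal from transgenic T. cruzi replicating inside host cells; inhibitors lower the luminescence signal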
[14] = tested on: Vero; test: mammalian cell viability reduction – secondary assay, cytotoxicity control for West Nile virus antiviral project, dose response (AID 1650); format: functional; conditions: Chlorocebus sabaeus
[15] = molecular target: Heat shock protein HSP 90-alpha (Homo sapiens, UniProt P07900); format: functional, organism-based
[16] = molecular target: G-protein coupled receptor 55 (Homo sapiens, UniProt Q9Y2T6); test: selective activators of receptor GPR55 – imaging, U2OS cells, beta-arrestin-GFP redistribution, primary screen (AID 1961); format: functional
[17] = NIH3T3 cell viability loss – ATP luminescence, mouse fibroblasts, counter-screen, dose response (AID 2010); format: functional, cell-based;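 also: cells exposed to compound for about 90 hours before reading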
[18] = molecular target: Large T antigen (Simian virus 40, UniProt P03070); format: functional, Betapolyomavirus macacae;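 also: Confirmatory-stage PubChem screen for compounds that inhibit SV40 T antigen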
[19] = molecular target: T4, RNA-binding protein pos-1 (Caenorhabditis elegans, UniProt G5EF15); test: disruptors of C. elegans POS-1 RNA interaction – biochemical, fluorescence polarization, dose response (AID 1964);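 also: purified POS-1 fused to maltose binding protein made in E. coli; potency of compounds blocking POS-1 binding to fluorescent RNA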
T4 sequence (G5EF15 whole entry): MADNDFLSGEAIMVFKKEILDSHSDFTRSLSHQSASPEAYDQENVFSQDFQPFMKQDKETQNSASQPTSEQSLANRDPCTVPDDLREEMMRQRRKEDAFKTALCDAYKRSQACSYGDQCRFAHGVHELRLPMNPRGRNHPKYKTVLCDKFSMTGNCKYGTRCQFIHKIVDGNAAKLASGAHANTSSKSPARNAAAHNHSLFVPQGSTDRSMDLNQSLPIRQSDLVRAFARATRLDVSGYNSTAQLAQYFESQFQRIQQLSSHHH

[20] = molecular target: Glucose-6-phosphate 1-dehydrogenase (Homo sapiens, UniProt P11413); test: inhibition of Homo sapiens G6PD, dose series – biochemical, fluorescence, selectivity assay for P. falciparum G6PD inhibitor project, dose response (AID 504792); format: functional
[21] = viability loss of HPDE-C7K cells – cell-based, fluorescence, HTS, primary screen (AID 431); format: functional; conditions: Homo sapiens
[22] = HPDE-C7 pancreatic duct cell viability loss – fluorescence, HTS (AID 430); format: functional, cell-based; conditions: Homo sapiens
[23] = molecular target: T5, Estrogen receptor (Homo sapiens, UniProt P03372);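 also: potency for inhibiting coactivator peptide recruitment to the receptor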
T5 sequence (P03372 whole entry): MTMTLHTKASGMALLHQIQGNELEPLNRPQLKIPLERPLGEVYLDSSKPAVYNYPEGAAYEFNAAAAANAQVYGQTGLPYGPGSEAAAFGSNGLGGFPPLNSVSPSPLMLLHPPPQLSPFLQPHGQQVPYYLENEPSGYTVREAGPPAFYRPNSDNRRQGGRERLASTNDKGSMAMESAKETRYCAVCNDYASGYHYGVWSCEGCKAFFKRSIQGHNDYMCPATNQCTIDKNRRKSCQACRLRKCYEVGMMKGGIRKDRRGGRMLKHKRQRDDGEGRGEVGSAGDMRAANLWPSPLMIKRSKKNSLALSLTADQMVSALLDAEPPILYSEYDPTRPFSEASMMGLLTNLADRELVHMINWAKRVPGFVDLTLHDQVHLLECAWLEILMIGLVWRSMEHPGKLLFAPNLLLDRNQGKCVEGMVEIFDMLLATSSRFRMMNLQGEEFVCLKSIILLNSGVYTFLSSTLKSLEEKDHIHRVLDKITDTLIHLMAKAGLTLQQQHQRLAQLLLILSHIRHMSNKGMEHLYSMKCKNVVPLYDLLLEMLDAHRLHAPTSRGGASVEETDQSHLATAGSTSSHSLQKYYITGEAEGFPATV

[24] = molecular target: T6, Heat shock factor protein 1 (Mus musculus, UniProt P38532); test: enhancement of HSF1-driven luciferase signal – cell-based, NIH3T3, luminescence, dose retest, confirmation (AID 435004); format: functional;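 also: stress induced by proteasome inhibitor MG132 added 30 min after compound; luciferase reporter driven by HSF1 response element in NIH3T3 cells; actives raise luminescence as potentiators of the MG132 stress response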
T6 sequence (P38532 whole entry): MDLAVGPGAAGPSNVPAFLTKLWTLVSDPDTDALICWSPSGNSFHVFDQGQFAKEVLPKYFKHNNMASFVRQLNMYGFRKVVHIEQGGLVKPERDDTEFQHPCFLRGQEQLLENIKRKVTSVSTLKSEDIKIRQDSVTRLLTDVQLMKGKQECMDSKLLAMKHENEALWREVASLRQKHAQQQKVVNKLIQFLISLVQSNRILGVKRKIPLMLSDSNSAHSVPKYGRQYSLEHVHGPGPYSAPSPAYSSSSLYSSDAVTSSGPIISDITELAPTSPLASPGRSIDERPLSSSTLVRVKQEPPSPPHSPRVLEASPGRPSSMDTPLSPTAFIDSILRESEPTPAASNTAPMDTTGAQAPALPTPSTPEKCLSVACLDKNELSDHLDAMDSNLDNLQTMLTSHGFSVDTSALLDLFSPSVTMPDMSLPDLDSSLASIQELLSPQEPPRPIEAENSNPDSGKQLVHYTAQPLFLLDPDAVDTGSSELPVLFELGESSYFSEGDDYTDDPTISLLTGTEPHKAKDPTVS

[25] = molecular target: 14-3-3 protein gamma (Homo sapiens, UniProt P61981); test: modulators of 14-3-3 gamma client binding – dose response (AID 711); format: functional
[26] = molecular target: T7, Zinc finger protein mex-5 (Caenorhabditis elegans, UniProt Q9XUB2); test: potency of MEX-5 RNA-binding blockers – biochemical, C. elegans, fluorescence polarization, dose response (AID 1960)
T7 sequence (Q9XUB2 whole entry): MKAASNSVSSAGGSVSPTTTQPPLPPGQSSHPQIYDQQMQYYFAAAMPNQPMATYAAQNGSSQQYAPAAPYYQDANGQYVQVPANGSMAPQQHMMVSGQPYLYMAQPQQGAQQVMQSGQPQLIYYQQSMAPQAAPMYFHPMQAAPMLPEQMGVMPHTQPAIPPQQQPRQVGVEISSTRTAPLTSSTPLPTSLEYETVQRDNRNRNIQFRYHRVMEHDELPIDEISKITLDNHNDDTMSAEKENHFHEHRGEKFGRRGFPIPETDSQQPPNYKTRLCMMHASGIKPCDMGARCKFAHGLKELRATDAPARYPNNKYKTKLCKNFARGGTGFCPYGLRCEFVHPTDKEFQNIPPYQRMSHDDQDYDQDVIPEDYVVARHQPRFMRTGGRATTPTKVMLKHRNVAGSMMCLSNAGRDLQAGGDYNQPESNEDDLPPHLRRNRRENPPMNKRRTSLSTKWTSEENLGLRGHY

T1 sequence (P33261 whole entry): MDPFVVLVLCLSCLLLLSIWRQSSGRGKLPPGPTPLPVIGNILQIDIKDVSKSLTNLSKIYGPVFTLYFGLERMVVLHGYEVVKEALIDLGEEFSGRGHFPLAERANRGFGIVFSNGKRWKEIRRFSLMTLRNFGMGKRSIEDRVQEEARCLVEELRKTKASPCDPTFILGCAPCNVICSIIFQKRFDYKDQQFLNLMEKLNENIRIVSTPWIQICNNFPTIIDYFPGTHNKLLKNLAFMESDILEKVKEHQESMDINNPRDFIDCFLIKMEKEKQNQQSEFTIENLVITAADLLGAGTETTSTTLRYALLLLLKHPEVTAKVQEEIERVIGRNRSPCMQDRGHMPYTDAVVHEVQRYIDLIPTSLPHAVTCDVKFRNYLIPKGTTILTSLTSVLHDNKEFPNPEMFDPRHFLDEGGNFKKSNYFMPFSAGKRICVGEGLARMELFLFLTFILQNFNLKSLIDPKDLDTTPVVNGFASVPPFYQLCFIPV
Sequence of Transitional endoplasmic reticulum ATPase (Homo sapiens, UniProt P55072) (P55072 whole entry): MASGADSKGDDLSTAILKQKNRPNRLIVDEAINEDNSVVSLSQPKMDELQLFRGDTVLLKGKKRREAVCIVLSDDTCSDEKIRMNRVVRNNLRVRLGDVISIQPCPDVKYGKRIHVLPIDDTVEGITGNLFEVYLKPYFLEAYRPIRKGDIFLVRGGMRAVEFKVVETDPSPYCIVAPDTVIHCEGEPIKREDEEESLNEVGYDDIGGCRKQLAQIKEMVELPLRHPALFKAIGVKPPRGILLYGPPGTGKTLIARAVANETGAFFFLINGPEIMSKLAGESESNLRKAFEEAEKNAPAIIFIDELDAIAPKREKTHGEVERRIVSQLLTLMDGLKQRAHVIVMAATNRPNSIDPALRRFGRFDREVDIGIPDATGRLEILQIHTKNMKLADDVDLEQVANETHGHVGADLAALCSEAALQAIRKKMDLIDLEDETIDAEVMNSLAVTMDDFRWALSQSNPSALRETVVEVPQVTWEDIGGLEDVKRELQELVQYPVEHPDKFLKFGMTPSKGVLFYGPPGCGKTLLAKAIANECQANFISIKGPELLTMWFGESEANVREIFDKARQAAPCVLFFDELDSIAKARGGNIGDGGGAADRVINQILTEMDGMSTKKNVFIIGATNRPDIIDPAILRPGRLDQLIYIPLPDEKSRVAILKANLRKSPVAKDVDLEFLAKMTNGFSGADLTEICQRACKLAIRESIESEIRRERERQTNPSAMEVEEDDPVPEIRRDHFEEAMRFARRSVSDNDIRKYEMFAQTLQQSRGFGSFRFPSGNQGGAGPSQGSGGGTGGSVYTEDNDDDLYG
Sequence of Peroxisome proliferator-activated receptor gamma/Nuclear receptor corepressor 2 (P37231 whole entry): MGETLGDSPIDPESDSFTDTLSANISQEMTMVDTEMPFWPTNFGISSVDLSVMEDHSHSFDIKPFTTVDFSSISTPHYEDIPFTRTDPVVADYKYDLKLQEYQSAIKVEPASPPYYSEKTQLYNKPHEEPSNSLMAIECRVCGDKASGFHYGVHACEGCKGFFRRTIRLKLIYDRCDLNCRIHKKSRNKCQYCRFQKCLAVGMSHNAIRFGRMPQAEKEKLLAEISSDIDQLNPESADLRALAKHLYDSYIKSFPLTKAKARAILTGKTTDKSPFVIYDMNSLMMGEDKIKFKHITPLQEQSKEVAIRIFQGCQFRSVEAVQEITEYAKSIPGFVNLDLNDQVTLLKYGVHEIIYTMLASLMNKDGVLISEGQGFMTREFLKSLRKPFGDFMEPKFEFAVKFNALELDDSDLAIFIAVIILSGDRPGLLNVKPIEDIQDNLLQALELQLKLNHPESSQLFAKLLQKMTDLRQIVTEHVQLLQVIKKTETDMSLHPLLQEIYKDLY
Sequence of Peroxisome proliferator-activated receptor gamma/Nuclear receptor corepressor 2 (Q9Y618 whole entry): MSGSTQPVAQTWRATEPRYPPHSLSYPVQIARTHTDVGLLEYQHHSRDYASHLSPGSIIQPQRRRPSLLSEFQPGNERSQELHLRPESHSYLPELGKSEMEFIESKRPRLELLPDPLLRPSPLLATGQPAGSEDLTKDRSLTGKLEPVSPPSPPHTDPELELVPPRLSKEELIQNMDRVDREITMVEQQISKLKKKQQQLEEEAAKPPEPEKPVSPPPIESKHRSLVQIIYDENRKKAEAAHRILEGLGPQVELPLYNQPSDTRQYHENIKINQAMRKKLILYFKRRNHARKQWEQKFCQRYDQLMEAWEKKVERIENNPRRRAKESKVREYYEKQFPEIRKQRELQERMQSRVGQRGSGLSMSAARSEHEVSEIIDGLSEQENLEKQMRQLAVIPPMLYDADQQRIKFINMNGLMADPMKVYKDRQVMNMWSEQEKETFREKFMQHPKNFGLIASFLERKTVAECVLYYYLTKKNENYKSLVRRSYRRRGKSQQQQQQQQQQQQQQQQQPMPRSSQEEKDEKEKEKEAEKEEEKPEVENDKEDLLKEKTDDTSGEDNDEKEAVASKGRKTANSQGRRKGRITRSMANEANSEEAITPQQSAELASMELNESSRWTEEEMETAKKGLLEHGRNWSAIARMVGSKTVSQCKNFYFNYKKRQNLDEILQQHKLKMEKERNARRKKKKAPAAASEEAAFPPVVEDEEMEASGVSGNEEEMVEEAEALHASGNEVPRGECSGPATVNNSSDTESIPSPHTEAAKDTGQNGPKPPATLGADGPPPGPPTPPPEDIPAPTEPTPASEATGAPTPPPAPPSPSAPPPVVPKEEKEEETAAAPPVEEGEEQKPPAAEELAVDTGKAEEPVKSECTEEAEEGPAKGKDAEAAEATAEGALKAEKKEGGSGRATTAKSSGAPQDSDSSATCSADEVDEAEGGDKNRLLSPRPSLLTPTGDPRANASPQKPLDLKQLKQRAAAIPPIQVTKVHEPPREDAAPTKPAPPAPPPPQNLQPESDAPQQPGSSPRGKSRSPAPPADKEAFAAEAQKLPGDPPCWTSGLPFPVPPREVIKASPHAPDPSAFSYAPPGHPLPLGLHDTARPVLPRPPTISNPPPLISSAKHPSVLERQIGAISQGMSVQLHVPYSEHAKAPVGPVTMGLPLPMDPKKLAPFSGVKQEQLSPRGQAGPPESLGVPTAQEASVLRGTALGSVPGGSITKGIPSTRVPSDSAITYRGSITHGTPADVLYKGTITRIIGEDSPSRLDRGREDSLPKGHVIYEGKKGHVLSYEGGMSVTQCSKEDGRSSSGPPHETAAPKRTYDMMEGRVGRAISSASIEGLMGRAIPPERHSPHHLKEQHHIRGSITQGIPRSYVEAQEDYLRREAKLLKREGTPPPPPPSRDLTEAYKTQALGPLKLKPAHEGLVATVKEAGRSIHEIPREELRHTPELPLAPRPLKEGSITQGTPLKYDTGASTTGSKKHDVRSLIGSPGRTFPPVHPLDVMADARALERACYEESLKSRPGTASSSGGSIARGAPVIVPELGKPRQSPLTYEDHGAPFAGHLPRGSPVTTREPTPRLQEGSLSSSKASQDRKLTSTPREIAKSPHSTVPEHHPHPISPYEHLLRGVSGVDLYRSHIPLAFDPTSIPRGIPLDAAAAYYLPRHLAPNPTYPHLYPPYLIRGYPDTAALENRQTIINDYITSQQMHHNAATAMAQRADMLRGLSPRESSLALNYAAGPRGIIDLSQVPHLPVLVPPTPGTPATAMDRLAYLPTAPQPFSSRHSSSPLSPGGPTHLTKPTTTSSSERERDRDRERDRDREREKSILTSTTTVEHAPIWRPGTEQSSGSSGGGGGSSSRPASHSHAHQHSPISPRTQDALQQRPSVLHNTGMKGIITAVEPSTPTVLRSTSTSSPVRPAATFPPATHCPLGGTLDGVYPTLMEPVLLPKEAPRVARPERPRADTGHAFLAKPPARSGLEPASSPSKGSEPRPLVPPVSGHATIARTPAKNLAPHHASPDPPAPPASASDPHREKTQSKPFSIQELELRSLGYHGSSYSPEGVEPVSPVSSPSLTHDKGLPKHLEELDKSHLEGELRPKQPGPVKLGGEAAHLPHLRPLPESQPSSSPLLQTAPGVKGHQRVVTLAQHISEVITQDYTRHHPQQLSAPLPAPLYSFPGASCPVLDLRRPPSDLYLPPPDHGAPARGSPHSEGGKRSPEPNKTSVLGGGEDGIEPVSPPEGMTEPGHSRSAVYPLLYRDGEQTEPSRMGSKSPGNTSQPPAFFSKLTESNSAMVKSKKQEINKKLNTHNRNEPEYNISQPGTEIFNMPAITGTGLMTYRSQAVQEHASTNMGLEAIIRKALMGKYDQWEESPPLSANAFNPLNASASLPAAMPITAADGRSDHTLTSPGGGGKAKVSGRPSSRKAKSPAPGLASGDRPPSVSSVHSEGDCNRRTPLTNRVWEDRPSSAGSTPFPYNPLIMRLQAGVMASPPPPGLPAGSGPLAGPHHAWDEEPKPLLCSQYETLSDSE
Sequence of Transitional endoplasmic reticulum ATPase (Homo sapiens, UniProt P55072, C522A) (P55072 2-806 C522A limits assumed): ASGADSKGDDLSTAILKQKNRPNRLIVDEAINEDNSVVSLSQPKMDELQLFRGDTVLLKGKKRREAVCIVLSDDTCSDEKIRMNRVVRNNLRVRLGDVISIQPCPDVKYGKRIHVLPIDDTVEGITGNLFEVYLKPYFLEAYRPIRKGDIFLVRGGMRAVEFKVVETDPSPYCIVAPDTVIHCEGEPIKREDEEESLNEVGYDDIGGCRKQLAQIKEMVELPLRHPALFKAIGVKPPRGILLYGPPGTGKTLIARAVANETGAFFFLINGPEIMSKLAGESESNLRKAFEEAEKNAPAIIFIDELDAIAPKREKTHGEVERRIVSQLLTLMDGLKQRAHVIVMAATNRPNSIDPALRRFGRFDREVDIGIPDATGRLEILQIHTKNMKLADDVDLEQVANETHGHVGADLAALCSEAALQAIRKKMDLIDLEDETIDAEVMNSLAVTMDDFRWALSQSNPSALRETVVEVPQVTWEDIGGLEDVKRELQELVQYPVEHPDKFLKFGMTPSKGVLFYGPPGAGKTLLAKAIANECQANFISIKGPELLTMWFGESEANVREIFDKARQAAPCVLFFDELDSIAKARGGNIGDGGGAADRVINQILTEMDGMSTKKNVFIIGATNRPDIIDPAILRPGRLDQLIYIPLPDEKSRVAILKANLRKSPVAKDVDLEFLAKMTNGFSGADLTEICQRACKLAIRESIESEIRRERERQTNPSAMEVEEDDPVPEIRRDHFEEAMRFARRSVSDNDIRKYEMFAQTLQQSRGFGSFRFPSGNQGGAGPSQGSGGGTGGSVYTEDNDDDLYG

Compound: O=C(CSc1nnnn1-c1ccc(F)cc1)c1ccc(O)c(O)c1
IC50 [9]: 80.6 µM (active)
IC50 [10]: 5.98 µM (active)
IC50 [11]: 1.89 µM (active)
IC50 [12]: 2.16 µM (active)

Compound: CC(=O)Nc1ccc(Nc2cc(C(C)C)nc3c(-c4ccccc4)c(C)nn23)cc1
EC50 [13]: 0.211 µM (active)
CC50 [14]: > 100 µM (active)
AC50 [15]: 3.84 µM (active)
EC50 [16]: > 32 µM (inactive)
EC50 [17]: 10.4 µM (active)

Compound: CC(Cc1ccc(O)c(O)c1)C(C)Cc1ccc(O)c(O)c1 (stereo unspecified) [NORDIHYDROGUAIARETIC ACID]
IC50 [18]: 21.9 µM (active)
EC50 [19]: 26.1 µM (active)
IC50 [20]: > 80 µM (inactive)
EC50 [21]: 11.2 µM (active)
EC50 [22]: 9.48 µM (active)
IC50 [23]: 22.2 µM (active)
EC50 [24]: 2.32 µM (active)
IC50 [25]: > 50 µM (not active)
EC50 [26]: 8.75 µM (active)

More lines, now with the values ahead:

IC50 [1]: > 50 µM (not active)
IC50 [2]: > 50 µM (not active)
Compound: Cc1cc(-c2csc(Nc3ccc(C#N)cc3)n2)c(C)n1C

IC50 [3]: 17.9 µM (inactive)
IC50 [4]: > 39.8 µM (not active)
IC50 [5]: > 39.8 µM (not active)
AC50 [6]: inconclusive
AC50 [7]: inconclusive
Compound: O=C(Nc1ccc(-c2cc3ccccc3oc2=O)c(Cl)c1)c1cccnc1

AC50 [8]: 0.794 µM (inconclusive)
Compound: CC(=O)c1ccc(C2C=CC(Oc3ccc(-c4ccccc4)cc3)C(CO)O2)cc1 (stereo unspecified)
